Compound in one test: c1ccc2c(CCNc3ccc(Nc4ccncc4)cc3)c[nH]c2c1 [Serdemetan]
Nature of the test: relative viability (nuclei count vs DMSO), 5 days (fraction); higher = more cells survive. The essentials: (§1)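 Only plates meeting two conditions passed: control CV below 25% and at least one doubling. Lung cancer cell lines, kept overnight at 37 °C in 1536-well plates, were pinned with five library-drug doses (not always all listed) √10 apart on vehicle-anchored plates and grown 5 days without medium change. A one-step fix, permeabilisation and Hoechst stain preceded 4× imaging and MetaXpress nuclear counting. Viability equals treated-well nuclei divided by vehicle-well nuclei, as the median over plates.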

Compound in the next test: C1CC(C2=C(C1)C3=C(N2)C=CC(=C3)Cl)C(=O)N [Selisistat]
Described as above. Summed up: as §1

As to LCLC-103H, the relative viability was found to be 0.993 with Serdemetan (0.04 µM); 1.01 in the test with Serdemetan (0.1265 µM); 0.995 with Serdemetan (0.4 µM); 0.877 with Serdemetan (1.265 µM); 1.04 in the test with Serdemetan (4 µM); 1.06 with Selisistat (0.4 µM). Besides, the relative viability was determined as 1.05 with Selisistat (1.265 µM), 0.819 with Selisistat (4 µM), 0.947 in the test with Selisistat (12.65 µM) and 0.988 in the test with Selisistat (40 µM).
For LK-2, the relative viability with Serdemetan (0.04 µM) is 0.999; with Serdemetan (0.1265 µM) it was 1.02; with Serdemetan (0.4 µM) it was 1.01; with Serdemetan (1.265 µM), 0.848; in the test with Serdemetan (4 µM), 0.887; with Selisistat (0.4 µM), 0.963. The relative viability was determined as 0.891 with Selisistat (1.265 µM), 1 with Selisistat (4 µM), 0.913 with Selisistat (12.65 µM) and 1.02 with Selisistat (40 µM).
As to LOU-NH91, the relative viability with Serdemetan (0.04 µM) is 1.02; with Serdemetan (0.1265 µM), 0.946; in the test with Serdemetan (0.4 µM), 0.694; with Serdemetan (1.265 µM), 0.783; with Serdemetan (4 µM), 0.999; in the test with Selisistat (0.4 µM), 1.05. The relative viability came to 0.938 with Selisistat (1.265 µM), 0.884 in the test with Selisistat (4 µM), 0.966 with Selisistat (12.65 µM) and 0.973 with Selisistat (40 µM).
In the case of LU99A, the relative viability turned out to be 1.01 with Serdemetan (0.04 µM); 0.911 with Serdemetan (0.1265 µM); 0.903 in the test with Serdemetan (0.4 µM); 0.52 with Serdemetan (1.265 µM); 0.427 with Serdemetan (4 µM); 1.09 with Selisistat (0.4 µM). The relative viability stood at 0.992 with Selisistat (1.265 µM), 0.987 with Selisistat (4 µM), 0.874 with Selisistat (12.65 µM) and 1.01 with Selisistat (40 µM).
LXF-289: the relative viability is 1.02 in the test with Serdemetan (0.04 µM); 0.996 with Serdemetan (0.1265 µM); 0.933 in the test with Serdemetan (0.4 µM); 0.84 with Serdemetan (1.265 µM); 0.885 in the test with Serdemetan (4 µM); 1.05 in the test with Selisistat (0.4 µM). For the same cell line, the relative viability with Selisistat (1.265 µM) was 1.03; with Selisistat (4 µM) it was 0.867; with Selisistat (12.65 µM) it was 0.949; with Selisistat (40 µM), 1.07.
With NCI-H23, the relative viability is 0.972 in the test with Serdemetan (0.04 µM); 1.17 with Serdemetan (0.1265 µM); 1.11 in the test with Serdemetan (0.4 µM); 0.817 in the test with Serdemetan (1.265 µM); 1.04 with Serdemetan (4 µM); 0.989 with Selisistat (0.4 µM). Also, the relative viability with Selisistat (1.265 µM) turned out to be 0.941; in the test with Selisistat (12.65 µM), 0.906; with Selisistat (40 µM), 1.08.
Regarding NCI-H322M, the relative viability in the test with Serdemetan (0.04 µM) came to 0.9; with Serdemetan (0.1265 µM) it was 1; in the test with Serdemetan (0.4 µM) it was 0.901; with Serdemetan (1.265 µM) it was 0.791; with Serdemetan (4 µM), 0.874; with Selisistat (0.4 µM) it was 0.98. The relative viability with Selisistat (1.265 µM) turned out to be 1.01; with Selisistat (12.65 µM) it was 0.994; in the test with Selisistat (40 µM), 1.01.
As to NCI-H358, the relative viability with Serdemetan (0.04 µM) worked out at 0.897; in the test with Serdemetan (0.1265 µM), 0.905; with Serdemetan (0.4 µM), 0.901; with Serdemetan (1.265 µM), 0.81; with Serdemetan (4 µM), 0.798; with Selisistat (0.4 µM), 0.989. For the same cell line, the relative viability is 0.925 with Selisistat (1.265 µM), 1.06 with Selisistat (12.65 µM) and 0.976 with Selisistat (40 µM).
NCI-H441: the relative viability in the test with Serdemetan (0.04 µM) came to 0.981; with Serdemetan (0.1265 µM) it was 1.06; in the test with Serdemetan (0.4 µM), 1.06; in the test with Serdemetan (1.265 µM) it was 0.815; with Serdemetan (4 µM) it was 0.78; with Selisistat (0.4 µM), 1.22. Further, the relative viability in the test with Selisistat (1.265 µM) was 1.11; with Selisistat (4 µM), 0.774; with Selisistat (12.65 µM), 0.955; with Selisistat (40 µM), 1.01.
